Measured values published in patent publication US9957261B2 (Hoffmann-La Roche Inc., priority 2014, dated 2018).

Key:
[1] = biological target: mouse TAAR1 (Mus musculus (Mouse), UniProt Q923Y8); experiment: Radioligand binding assay on mouse TAAR1; settings: mouse TAAR1, membranes of stably transfected HEK-293 cells; first value of mouse/rat pair
Method: (§1) Construction of TAAR Expression Plasmids and Stably Transfected Cell Lines
(§2) For the construction of expression plasmids the coding sequences of human, rat and mouse TAAR 1 were amplified from genomic DNA essentially as described by Lindemann et al.. The Expand High Fidelity PCR System (Roche Diagnostics) was used with 1.5 mM Mg^2+ and purified PCR products were cloned into pCR2.1-TOPO cloning vector (Invitrogen) following the instructions of the manufacturer. PCR products were subcloned into the pIRESneo2 vector (BD Clontech, Palo Alto, Calif.), and expression vectors were sequence verified before introduction in cell lines.
(§3) HEK293 cells (ATCC # CRL-1573) were cultured essentially as described by Lindemann et al. (2005). For the generation of stably transfected cell lines HEK293 cells were transfected with the pIRESneo2 expression plasmids containing the TAAR coding sequences (described above) with Lipofectamine 2000 (Invitrogen) according to the instructions of the manufacturer, and 24 hrs post transfection the culture medium was supplemented with 1 mg/ml G418 (Sigma, Buchs, Switzerland). After a culture period of about 10 d clones were isolated, expanded and tested for responsiveness to trace amines (all compounds purchased from Sigma) with the cAMP Biotrak Enzyme immunoassay (EIA) System (Amersham) following the non-acetylation EIA procedure provided by the manufacturer.
Radioligand Binding Assay on Mouse TAAR1
(§4) Membrane Preparation and Radioligand Binding.
(§5) HEK-293 cells stably expressing mouse TAAR1 were maintained at 37° C. and 5% CO2 in DMEM high glucose medium, containing fetal calf serum (10%, heat inactivated for 30 min at 56° C.), penicillin/streptomycin (1%), and 375 μg/ml geneticin (Gibco). Cells were released from culture flasks using trypsin/EDTA, harvested, washed twice with ice-cold PBS (without Ca^2+ and Mg^2+), pelleted at 1′000 rpm for 5 min at 4° C., frozen and stored at −80° C. Frozen pellets were suspended in 20 ml HEPES-NaOH (20 mM, pH 7.4) containing 10 mM EDTA and homogenized with a Polytron (PT 6000, Kinematica) at 14,000 rpm for 20 s. The homogenate was centrifuged at 48,000×g for 30 min at 4° C. Subsequently, the supernatant was removed and discarded, and the pellet resuspended in 20 ml HEPES-NaOH (20 mM, pH 7.4) containing 0.1 mM EDTA using the Polytron (20 s at 14,000 rpm). This procedure was repeated and the final pellet resuspended in HEPES-NaOH containing 0.1 mM EDTA and homogenized using the Polytron. Typically, aliquots of 2 ml membrane portions were stored at −80° C. With each new membrane batch the dissociation constant (Kd) was determined via a saturation curve. […] Nonspecific binding was defined as the amount of ^3[H]—(S)-4-[(ethyl-phenyl-amino)-methyl]-4,5-dihydro-oxazol-2-ylamine bound in the presence of 10 μM unlabeled ligand. All compounds were tested at a broad range of concentrations (10 pM to 10 μM) in duplicates. […] The 96 deep well plates were incubated for 1 hr at 4° C. Incubations were terminated by rapid filtration through Unifilter-96 plates (Packard Instrument Company) and glass filters GF/C (Perkin Elmer) presoaked for 1 hr in polyethylenimine (0.3%) and washed 3 times with 1 ml of cold binding buffer. After addition of 45 μl of Microscint 40 (PerkinElmer) the Unifilter-96 plate was sealed and after 1 hr the radioactivity counted using a TopCount Microplate Scintillation Counter (Packard Instrument Company).

[2] = biological target: rat TAAR1 (Rattus norvegicus (Rat), UniProt Q923Y9); experiment: Radioligand binding assay on rat TAAR1; settings: rat TAAR1, membranes of stably transfected HEK-293 cells; second value of mouse/rat pair
Method: as §1, §2, §3
Radioligand Binding Assay on Rat TAAR1
as §4
as §5, with “rat” for “mouse”, “[H]—(S)-4-[(ethyl-phenyl-amino)-methyl]-4,5-dihydro-oxazol-2-ylamine” for “^3[H]—(S)-4-[(ethyl-phenyl-amino)-methyl]-4,5-dihydro-oxazol-2-ylamine”

mouse TAAR1, sequence (Q923Y8 whole entry): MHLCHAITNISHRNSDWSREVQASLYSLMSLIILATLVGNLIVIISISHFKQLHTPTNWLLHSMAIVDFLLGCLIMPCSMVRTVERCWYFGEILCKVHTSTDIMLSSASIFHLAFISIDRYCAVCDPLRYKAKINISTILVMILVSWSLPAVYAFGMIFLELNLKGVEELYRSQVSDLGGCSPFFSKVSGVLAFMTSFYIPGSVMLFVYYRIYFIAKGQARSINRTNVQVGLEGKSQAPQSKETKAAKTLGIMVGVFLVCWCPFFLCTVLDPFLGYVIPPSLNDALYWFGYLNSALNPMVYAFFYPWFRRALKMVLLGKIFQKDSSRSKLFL
rat TAAR1, sequence (Q923Y9 whole entry): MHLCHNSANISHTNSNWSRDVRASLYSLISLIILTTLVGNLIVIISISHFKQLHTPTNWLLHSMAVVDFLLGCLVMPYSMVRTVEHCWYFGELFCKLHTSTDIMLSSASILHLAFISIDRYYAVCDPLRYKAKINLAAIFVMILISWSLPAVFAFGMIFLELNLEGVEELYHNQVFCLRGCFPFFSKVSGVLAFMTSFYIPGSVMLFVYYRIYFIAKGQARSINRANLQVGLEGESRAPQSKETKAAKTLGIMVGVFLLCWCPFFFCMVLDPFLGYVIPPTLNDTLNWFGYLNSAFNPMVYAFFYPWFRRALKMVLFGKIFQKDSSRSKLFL

Structure (SMILES) | Ki [1] [µM] | Ki [2] [µM]
N[C@H]1CCc2cc(Nc3ncc(C(F)(F)F)cn3)ccc2C1 [Example 23, (S)—N6-(5-(Trifluoromethyl)pyrimidin-2-yl)-1,2,3,4-tetrahydronaphthalene-2,6-diamine] | 0.0213 | 0.0068
Cc1onc(C(=O)Nc2ccc3c(c2)CC[C@H](N)C3)c1Cl [Example 26, (S)—N-(6-Amino-5,6,7,8-tetrahydronaphthalen-2-yl)-4-chloro-5-methylisoxazole-3-carboxamide] | 0.0049 | 0.0199
N[C@H]1CCc2cc(Nc3ccc(C(F)(F)F)cn3)ccc2C1 [Example 38, (S)—N6-(5-(Trifluoromethyl)pyridin-2-yl)-1,2,3,4-tetrahydronaphthalene-2,6-diamine] | 0.0032 | 0.0021
N[C@H]1CCc2cc(NC(=O)c3cccnc3F)ccc2C1 [Example 39, (S)—N-(6-Amino-5,6,7,8-tetrahydronaphthalen-2-yl)-2-fluoronicotinamide] | 0.476 | 0.14
N[C@H]1CCc2cc(NC(=O)c3cnc(Cl)c(Cl)c3)ccc2C1 [Example 41, (S)—N-(6-Amino-5,6,7,8-tetrahydronaphthalen-2-yl)-5,6-dichloronicotinamide] | 0.0031 | 0.0031
N[C@H]1CCc2cc(NC(=O)c3ccc(F)c(F)c3)ccc2C1 [Example 42, (S)—N-(6-Amino-5,6,7,8-tetrahydronaphthalen-2-yl)-3,4-difluorobenzamide] | 0.0035 | 0.0019
N[C@H]1CCc2cc(NC(=O)c3cc(Cl)nc(Cl)c3)ccc2C1 [Example 46, (S)—N-(6-Amino-5,6,7,8-tetrahydronaphthalen-2-yl)-2,6-dichloroisonicotinamide] | 0.0042 | 0.0022
CCc1n[nH]c(C(=O)Nc2ccc3c(c2)CC[C@H](N)C3)c1C [Example 51, (S)—N-(6-Amino-5,6,7,8-tetrahydronaphthalen-2-yl)-3-ethyl-4-methyl-1H-pyrazole-5-carboxamide] | 0.0062 | 0.0046
CCc1ccc(Nc2ccc3c(c2)CC[C@H](N)C3)cc1 [Example 53, (S)—N6-(4-Ethylphenyl)-1,2,3,4-tetrahydronaphthalene-2,6-diamine] | 0.006 | 0.0083
CCc1ccc(NC(=O)c2ccc3c(c2)CCC(N)C3)cc1 (stereo not drawn) [Example 56, 6-Amino-N-(4-ethylphenyl)-5,6,7,8-tetrahydronaphthalene-2-carboxamide] | 0.0155 | 0.0456

More lines, now with the values ahead:

Ki [1] [µM] | Ki [2] [µM] | Structure (SMILES)
0.0011 | 0.0003 | N[C@H]1CCc2cc(NC(=O)Nc3ccc(C(F)(F)F)cc3)ccc2C1 [Example 24, (S)-1-(6-Amino-5,6,7,8-tetrahydronaphthalen-2-yl)-3-(4-(trifluoromethyl)phenyl)urea]
0.0007 | 0.0003 | N[C@H]1CCc2cc(NC(=O)c3[nH]nc(-c4ccc(Cl)o4)c3Cl)ccc2C1 [Example 25, (S)—N-(6-Amino-5,6,7,8-tetrahydronaphthalen-2-yl)-4-chloro-3-(5-chlorofuran-2-yl)-1H-pyrazole-5-carboxamide]
0.0028 | 0.0037 | Cc1ccc(-n2cc(C(=O)Nc3ccc4c(c3)CC[C@H](N)C4)cn2)cc1 [Example 27, (S)—N-(6-Amino-5,6,7,8-tetrahydronaphthalen-2-yl)-1-p-tolyl-1H-pyrazole-4-carboxamide]
0.0007 | 0.0003 | N[C@H]1CCc2cc(NC(=O)c3cnn(-c4ccc(Cl)c(Cl)c4)c3)ccc2C1 [Example 28, (S)—N-(6-Amino-5,6,7,8-tetrahydronaphthalen-2-yl)-1-(3,4-dichlorophenyl)-1H-pyrazole-4-carboxamide]
0.0012 | 0.0005 | N[C@H]1CCc2cc(NC(=O)c3cnn(-c4ccc(OC(F)(F)F)cc4)c3)ccc2C1 [Example 29, (S)—N-(6-Amino-5,6,7,8-tetrahydronaphthalen-2-yl)-1-(4-(trifluoromethoxy)phenyl)-1H-pyrazole-4-carboxamide]
0.0247 | 0.0434 | CCOc1ccc(NC(=O)c2ccc3c(c2)CCC(N)C3)cn1 (stereo not drawn) [Example 31, 6-Amino-N-(6-ethoxypyridin-3-yl)-5,6,7,8-tetrahydronaphthalene-2-carboxamide]
0.105 | 0.309 | NC1CCc2cc(C(=O)Nc3cnc(C4CC4)nc3)ccc2C1 (stereo not drawn) [Example 32, 6-Amino-N-(2-cyclopropylpyrimidin-5-yl)-5,6,7,8-tetrahydronaphthalene-2-carboxamide]
0.021 | 0.0865 | NC1CCc2cc(C(=O)Nc3cnc(C(F)(F)F)cn3)ccc2C1 (stereo not drawn) [Example 33, 6-Amino-N-(5-(trifluoromethyl)pyrazin-2-yl)-5,6,7,8-tetrahydronaphthalene-2-carboxamide]
0.0054 | 0.0039 | NC1CCc2cc(C(=O)Nc3ccc(C(F)(F)F)cc3)ccc2C1 (stereo not drawn) [Example 34, 6-Amino-N-(4-(trifluoromethyl)phenyl)-5,6,7,8-tetrahydronaphthalene-2-carboxamide]
0.0055 | 0.035 | NC1CCc2cc(C(=O)NCc3ccc(C(F)(F)F)cc3)ccc2C1 (stereo not drawn) [Example 35, 6-Amino-N-(4-(trifluoromethyl)benzyl)-5,6,7,8-tetrahydronaphthalene-2-carboxamide]
0.0006 | 0.001 | N[C@H]1CCc2cc(NC(=O)c3ccc4ccccc4c3)ccc2C1 [Example 43, (S)—N-(6-Amino-5,6,7,8-tetrahydronaphthalen-2-yl)-2-naphthamide]
0.0117 | 0.0063 | N[C@H]1CCc2cc(NC(=O)c3ccnc(C(F)(F)F)c3)ccc2C1 [Example 45, (S)—N-(6-Amino-5,6,7,8-tetrahydronaphthalen-2-yl)-2-(trifluoromethyl)isonicotinamide]
0.0128 | 0.0016 | CCn1nc(C(=O)Nc2ccc3c(c2)CC[C@H](N)C3)c(Br)c1OCC(F)F [Example 52, (S)—N-(6-Amino-5,6,7,8-tetrahydronaphthalen-2-yl)-4-bromo-5-(2,2-difluoroethoxy)-1-ethyl-1H-pyrazole-3-carboxamide]
0.003 | 0.0017 | NC1CCc2cc(C(=O)Nc3cccc(OC(F)(F)F)c3)ccc2C1 (stereo not drawn) [Example 55, 6-Amino-N-(3-(trifluoromethoxy)phenyl)-5,6,7,8-tetrahydronaphthalene-2-carboxamide]
